Assay results from the SangsterLogP compilation.

Legend:
[1] = method code SF-AS, from DOI: 10.1016/0045-6535(95)00267-c
[2] = not given; remark: listed apart in the source
[3] = not given; remark: listed apart in the source
[4] = method code SF-HPLC, from DOI: 10.1016/0378-5173(89)90028-8
[5] = method code SF, from DOI: 10.1021/jm00237a002, PMID: 1133810; conditions: pH 7.2
[6] = method code SF-GLC, from DOI: 10.1016/0048-3575(76)90072-9
[7] = method code SF-AS, from DOI: 10.1016/s0021-9673(00)82600-x
[8] = method code SF-GLC, from DOI: 10.1016/j.chemosphere.2013.04.065, PMID: 23732011
[9] = method code SF-AS, from DOI: 10.1002/jps.2600790421, PMID: 2352153
[10] = not given; remark: listed apart in the source
[11] = not given; remark: listed apart in the source
[12] = not given; remark: listed apart in the source
[13] = method code SF-AS, from DOI: 10.1007/bf00165040, PMID: 3033523; conditions: pH 7.4
[14] = not given; remark: listed apart in the source
[15] = method code SF-AS, from DOI: 10.1139/cjpp-75-12-1362, PMID: 9534947
[16] = method code G-GLC, from DOI: 10.1021/es00169a004
[17] = method code SF-NMR, from DOI: 10.1021/jm00157a023, PMID: 3806574
[18] = not given; remark: listed apart in the source
[19] = method code SF-HPLC, from DOI: 10.1021/jm00112a026, PMID: 1875345; conditions: pH 7.4
[20] = not given; remark: listed apart in the source
[21] = method code SF-HPLC, from DOI: 10.1023/a:1015862319927, PMID: 2062808; conditions: pH 7.4
[22] = not given; remark: listed apart in the source
[23] = not given; remark: listed apart in the source
[24] = method code SF-AS, from DOI: 10.1016/0378-5173(84)90231-x
[25] = method code SF-HPLC, from DOI: 10.1016/j.ejpb.2013.06.022, PMID: 23958327; conditions: pH 6.0
[26] = not given; remark: listed apart in the source
[27] = method code SF-AS, from DOI: 10.1021/jm00047a013, PMID: 7932583

CC1CCCCC1NC(=O)Nc1ccccc1 (centres undefined)
logP [1]: 3.09

C=C(C)C(=O)OCCC(C)OC(=O)C(=C)C (centres undefined)
logP: 2.16

c1ccc2c(c1)-c1ccc3ccc4cccc5cc-2c1c3c45
logP [2]: 6.58

CCCNc1ccc(C(=O)OCCN(C)C)cc1
logP [3]: 3.15

CCCC(=O)OCOC(=O)c1cn(CC)c2nc(C)ccc2c1=O
logP [4]: 2.2

CCCOc1cnc(NS(=O)(=O)c2ccccc2)nc1
logD [5]: 1.14

CCn1cc(C(=O)OC)c(=O)c2ccc(C)nc21
logP [4]: 1.23

CCOC(=O)CN(C(=O)CCl)c1ccccc1OC(C)C
logP [6]: 2.75

CN(C)c1cnn(-c2cccc(C(F)(F)F)c2)c(=O)c1Cl
logP [7]: 2.67

C=CCOc1ccc(OCCC)cc1
logP [8]: 2.4

O=NN(CCCl)C(Cc1ccccc1)C(=O)NC(=O)NCCCl (centres undefined)
logP [9]: 3.25

CC(C)NCC(O)COc1cccc2[nH]ccc12 (centres undefined)
logP [10]: 1.76

CCCCc1oc2ccccc2c1C(=O)c1cc(I)c(O)c(I)c1
logP [11]: 5.92

O=c1[nH]c2cc(Cl)ccc2n1C1CCNCC1
logP [12]: 1.59

CCOC(=O)CN(C(=O)CCl)c1ccccc1-c1ccccc1
logP [6]: 3.37

CSc1nc2c(N)ncnc2n1C1OC2COP(=O)(O)OC2C1O (centres undefined)
logD [13]: -2.03

C1=Cc2cccc3cccc1c23
logP [2]: 4.07

Cc1c(N=C2NCCN2)ccc2c1NCCN2
logP [14]: 0.04

Nc1ccc(C(=O)N/N=C/c2c(O)ccc3ccccc23)cc1
logP [15]: 3.04

CCCCOc1cnc(NS(=O)(=O)c2ccccc2)nc1
logD [5]: 1.41

Clc1cc(Cl)c(-c2c(Cl)c(Cl)cc(Cl)c2Cl)c(Cl)c1Cl
logP [16]: 7.21

Cc1c(N=C2NCCN2)ccc2c1NCCO2
logP [14]: 0.35

CCCCN(C)C(=O)Nc1ccc(Cl)c(Cl)c1
logP [1]: 4.1

CC1=CC(=O)c2cc(C)ccc2C1=O
logP [10]: 1.77

CCOCCOCCOP(=S)(N1CC1(C)C)N1CC1(C)C (centres undefined)
logP [17]: 0.47

O=C1NC(Cc2c[nH]c3ccccc23)C(=O)NC1Cc1ccc(O)cc1 (centres undefined)
logP [18]: 1.21

CNc1cnn(-c2ccccc2)c(=O)c1Cl
logP [7]: 1.19

Clc1cc(Cl)c(Cl)c(-c2ccccc2)c1Cl
logP [16]: 5.94

CCCCCNc1ccc(C(=O)OCCN(C)C)cc1
logP [3]: 4.14

COc1ccc(Oc2ccc(NC(=O)N(C)C)cc2)cc1
logP [1]: 2.54

OC(CN1C2CCCC21)Cn1ccnc1 (centres undefined)
logD [19]: 0.37

Clc1cc(Cl)cc(-c2cc(Cl)c(Cl)cc2Cl)c1
logP [20]: 5.68

CC(C)C(=O)OCC1OC(n2cc(I)c(=O)[nH]c2=O)C1O (centres undefined)
logD [21]: 0.83

CCOP(=O)(NC(C)CC)Oc1cc(C)ccc1[N+](=O)[O-] (centres undefined)
logP [22]: 2.73

COc1ccc(C(=O)OCC2OC(n3cc(I)c(=O)[nH]c3=O)CC2O)cc1 (centres undefined)
logD [21]: 1.38

CC12OOC(CCC(=O)O)(C=C1CCC(=O)O)c1ccccc12 (centres undefined)
logP [23]: 0.24

C=CCOc1ccc(OCC=C)cc1
logP [8]: 3.5

OC(CN1C2CCc3ccccc3C21)Cn1ccnc1 (centres undefined)
logD [19]: 2.15

C=C(C)C(=O)OCC(O)COc1ccc(C(C)(C)c2ccc(OCC(O)COC(=O)C(=C)C)cc2)cc1 (centres undefined)
logP: 3.34

O=C1NC(Cc2ccccc2)C(=O)NC1Cc1ccccc1 (centres undefined)
logP [18]: 2.08

O=C(OC[C@H]1O[C@@H](n2cc(I)c(=O)[nH]c2=O)C[C@@H]1O)c1ccc([N+](=O)[O-])cc1
logD [21]: 1.24

Cc1ccc(C=[N+]([O-])C(C)(C)C)cc1
logP [24]: 1.74

CC(C)C(C)Sc1nc2c(N)ncnc2n1C1OC2COP(=O)(O)OC2C1O (centres undefined)
logD [13]: -1.05

OC(CN1C2CCCCCCC21)Cn1ccnc1 (centres undefined)
logD [19]: 1.84

C=C(C)C(=O)OCc1ccccc1
logP: 2.16

Nc1cnn(-c2cccc(C(F)(F)F)c2)c(=O)c1Cl
logP [7]: 2.41

O=NN(CCCl)C(CC(=O)NCCCl)C(=O)NC(=O)NCCCl (centres undefined)
logP [9]: 3.15

O=C(O)CCC12C=CC(CCC(=O)O)(OO1)c1ccccc12
logP [23]: -0.13

Cc1c(N=C2NCCN2)ccc2nccnc12
logP [14]: 0.9

CCOC(=O)c1ccc(C#Cc2ccc3c(c2)C(C)(C)CCS3)nc1
logD [25]: 5.6

CC(C)[C@@H](C(=O)N[C@@H](Cc1ccccc1)C(=O)NC(=O)NCCCl)N(CCCl)N=O
logP [9]: 3.47

CCOC(=O)O[C@]1(C(=O)COC(=O)CC)CC[C@H]2[C@@H]3CCC4=CC(=O)C=C[C@]4(C)[C@H]3[C@@H](O)C[C@@]21C
logD [25]: 2.9

Cc1ncc(CO)c(/C=N/NC(=O)c2ccco2)c1O
logP [15]: 1.39

CCc1ccc(C=[N+]([O-])C(C)(C)C)cc1
logP [24]: 2.19

COc1ccc(C=[N+]([O-])C(C)(C)C)cc1
logP [24]: 1.21

O=c1[nH]c2ccccc2n1C1CCNCC1
logP [12]: 1.14

Clc1ccc(Cl)c(-c2cccc(Cl)c2Cl)c1
logP [20]: 5.81

CCCSP(=S)(OCC)Oc1ccc(SC)cc1 (centres undefined)
logP [22]: 4.9

O=C(N/N=C/c1c(O)ccc2ccccc12)c1cccc(F)c1
logP [15]: 4.06

O=c1[nH]c2ccccc2n1C1=CCNCC1
logP [12]: 0.85

Clc1cccc(-c2c(Cl)ccc(Cl)c2Cl)c1Cl
logP [20]: 6.04

CCOC(=O)CN(C(=O)CCl)c1ccccc1
logP [6]: 1.6

Clc1cc2c(cc1Cl)Oc1c(Cl)c(Cl)c(Cl)c(Cl)c1O2
logP [26]: 7.79

CC12C=CC(C)(OO1)c1ccccc12
logP [23]: 2.17

CNc1ccc(C(=O)OCCN(C)C)cc1
logP [3]: 1.95

Nc1ncnc2c1nc(Sc1ccc(Cl)cc1)n2[C@@H]1O[C@@H]2COP(=O)(O)O[C@H]2[C@H]1O
logD [13]: -0.98

O=C(c1ccc(O)cc1)c1ccc(Cl)cc1
logP [11]: 4

CCOCCOCCOP(=S)(N1CC1)N1CC1
logP [17]: 0.38

Cc1cc(C2CCCCC2)n(O)c(=O)c1
logD [25]: 2.3

CCCCc1oc2ccccc2c1C(=O)c1ccc(O)cc1
logP [11]: 4.87

O=C1CNC(=O)C(Cc2ccccc2)N1 (centres undefined)
logP [18]: 0.25

CCN(CC)C(=O)COC(=O)c1cn(CC)c2nc(C)ccc2c1=O
logP [4]: 1.43

CO[C@H]1N([C@H]2C[C@H](F)[C@@H](CO)O2)C(=O)NC(=O)[C@]1(C)Cl
logP [27]: 0.71

c1ccc(N=Nc2ccccc2)cc1
logP [10]: 3.92

CCOP(=S)(NC(C)CC)Oc1cc(C)ccc1[N+](=O)[O-] (centres undefined)
logP [22]: 4.62

c1ccc2c(c1)ccc1cc3ccc4ccccc4c3cc12
logP [2]: 6.84

Clc1cc(Cl)c2[nH]c3c(Cl)cc(Cl)cc3c2c1
logP [26]: 5.75

CO[C@@H]1N([C@H]2C[C@H](F)[C@@H](CO)O2)C(=O)NC(=O)[C@@]1(C)I
logP [27]: 0.6

CC(C)Oc1cnc(NS(=O)(=O)c2ccccc2)nc1
logD [5]: 0.86

C=CCOc1cccc(OCC=C)c1
logP [8]: 3.8

S=P(N1CCOCCOCCOCCOCCOCC1)(N1CC1)N1CC1
logP [17]: 0.75

CO[C@@H]1N([C@H]2C[C@H](F)[C@@H](CO)O2)C(=O)NC(=O)[C@@]1(C)Br
logP [27]: 0.54

Clc1cc2c(cc1Cl)=c1cc(Cl)c(Cl)cc1=2
logP [26]: 6.14

Clc1cc(Cl)c(-c2c(Cl)cccc2Cl)c(Cl)c1
logP [16]: 5.37
